Experimental data taken from patent US20190022041A1, “OIL PALM PHENOLICS COMPOSITION FOR THE PROTECTION OF HUMANS, ORGANS, CELLS AND TISSUES AGAINST THE INJURIOUS EFFECTS OF EXPOSURE TO IONIZING RADIATION” (Malaysian Palm Oil Board, priority 2015, published 2019).

System: HT-29 cells
Assay: number of colonies of HT-29 cells after gamma ionizing radiation
Assay type: cell-based
Conditions: FIG. 3
Excerpt: For instance, lipid peroxidation levels of HT-29 by TBAR assay is protected by OPP against 800 and 1600 rads HT-29, as illustrated in graph of FIG. 2. […] Out of the three preparations, number of colonies of HT-29 is highest in case of de-phenolics.

## O=C(O)C1=C[C@@H](O)[C@@H](O)[C@H](O)C1 [shikimic acid]
  number of colonies: abruptly increases
